According to US20070066651A1, “Pyrazoline derivatives useful for the treatment of cancer” (LABORATORIOS DEL DR. ESTEVE S.A., priority 2004, published 2007):

Tests used:
human recombinant COX-2 = target: T1, human recombinant COX-2 (Homo sapiens, UniProt P35354); assay: Cyclooxygenase enzyme assay (TLC method), COX-2; type: biochemical; conditions: human recombinant COX-2, preincubation 90-120 min, [1-14C] arachidonic acid; read-out: IC50 COX-2, inhibition of cyclooxygenase activity
T1 construct: purchased Oxford Biomedical Research Inc
T1 sequence (P35354 18-604): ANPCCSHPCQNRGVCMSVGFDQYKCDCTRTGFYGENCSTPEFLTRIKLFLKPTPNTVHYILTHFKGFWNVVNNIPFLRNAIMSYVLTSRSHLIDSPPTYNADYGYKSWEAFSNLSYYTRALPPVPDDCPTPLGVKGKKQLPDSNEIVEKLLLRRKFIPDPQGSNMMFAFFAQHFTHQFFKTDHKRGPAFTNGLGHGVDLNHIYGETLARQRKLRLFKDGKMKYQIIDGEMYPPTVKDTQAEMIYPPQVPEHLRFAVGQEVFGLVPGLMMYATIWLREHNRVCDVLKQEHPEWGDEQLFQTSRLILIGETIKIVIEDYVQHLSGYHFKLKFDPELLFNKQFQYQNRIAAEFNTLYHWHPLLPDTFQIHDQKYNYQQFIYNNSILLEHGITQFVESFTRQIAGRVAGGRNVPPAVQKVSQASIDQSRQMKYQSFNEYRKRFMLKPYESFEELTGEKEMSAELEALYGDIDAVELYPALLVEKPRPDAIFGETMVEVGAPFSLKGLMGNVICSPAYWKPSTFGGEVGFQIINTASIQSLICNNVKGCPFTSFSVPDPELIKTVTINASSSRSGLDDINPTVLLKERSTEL
Protocol: The compounds of formula I are potent inhibitors of COX-2. […] The resulting radiolabeled prostanoid compounds, i.e., the products of COX-2 reaction with arachidonic acid, were quantified.
Cyclooxygenase activity of ovine COX-1 (Oxford Biomedical Research Inc.) and human recombinant COX-2 (Oxford Biomedical Research Inc.) was assayed by a thin layer chromatography (TLC) method as follows. All inhibitors were dissolved in dimethyl sulfoxide to a stock solution of 5 mM. Human recombinant COX-2 (3 units) or ovine COX-1 (15 units) was incubated with inhibitors at several concentrations in a solution containing 100 mM Tris-HCl, pH7.8, 500 μM phenol and hematin for 90 to 120 minutes at room temperature (24° C.). In controls, equal volumes of DMSO without drug were added to the incubation mixture. After incubation for 90-120 minutes, [1-^14C] arachidonic acid (50 μM, 51 mCi/mmol) (DuPont NEN) was added and incubated at 37° C. for 2 minutes. The reaction was terminated by extraction with 1 ml of ethyl acetate. The ethyl acetate layer was transferred into a fresh tube and evaporated to dryness in a Speedvac vacuum dryer. […] Radiolabeled prostanoid compounds (the products of COX enzymatic reaction with radiolabeled arachidonic acid substrate) were quantitated with a radioactivity scanner (Fuji, Phosphorimager). […]

DLD-1 cells = assay: Soft agar assay, colony growth of DLD-1 cells; type: cell-based, human; conditions: highest concentration tested (range 10 μM to 75 μM), one dose, stained after 20 days, versus untreated control cells
Protocol: The Example 1 and 24 compounds were compared to the COX-2 inhibitor celecoxib in inhibiting the growth of DLD-1 cells in soft agar. DLD-1 cells are human colorectal carcinoma cells that overexpress COX-2. DLD-1 cells grow in soft agar and form tumors in nude mice. The soft agar assay was performed as follows. A layer of bottom agar ([…]) was placed onto 60 mm^2 tissue culture dishes. The tumor cells were trypsinized from normal growth flasks while in exponential growth. The cells were counted by using a hemacytometer and 1.0×10^5 cells were placed into the top agar mixture containing growth medium, 4% noble agar and various concentrations of drugs. The concentration range was normally between 10 μM to 75 μM. The cells were not refed during the assay system; therefore, the cells were treated with one dose of the agents. The plates were stained 20 days later with a 0.05% (w/v) nitroblue tetrazolium solution (which stains only viable cells) for 48 hours. The results are shown in FIG. 1, the y-axis being the percent of cell colonies remaining in comparison to untreated control cells.

ovine COX-1 = target: T2, ovine COX-1 (Ovis aries, UniProt P05979); assay: Cyclooxygenase enzyme assay (TLC method), COX-1; type: biochemical; conditions: ovine COX-1, preincubation 90-120 min, [1-14C] arachidonic acid; read-out: IC50 COX-1, inhibition of cyclooxygenase activity
T2 construct: purchased Oxford Biomedical Research Inc
T2 sequence (P05979 25-600): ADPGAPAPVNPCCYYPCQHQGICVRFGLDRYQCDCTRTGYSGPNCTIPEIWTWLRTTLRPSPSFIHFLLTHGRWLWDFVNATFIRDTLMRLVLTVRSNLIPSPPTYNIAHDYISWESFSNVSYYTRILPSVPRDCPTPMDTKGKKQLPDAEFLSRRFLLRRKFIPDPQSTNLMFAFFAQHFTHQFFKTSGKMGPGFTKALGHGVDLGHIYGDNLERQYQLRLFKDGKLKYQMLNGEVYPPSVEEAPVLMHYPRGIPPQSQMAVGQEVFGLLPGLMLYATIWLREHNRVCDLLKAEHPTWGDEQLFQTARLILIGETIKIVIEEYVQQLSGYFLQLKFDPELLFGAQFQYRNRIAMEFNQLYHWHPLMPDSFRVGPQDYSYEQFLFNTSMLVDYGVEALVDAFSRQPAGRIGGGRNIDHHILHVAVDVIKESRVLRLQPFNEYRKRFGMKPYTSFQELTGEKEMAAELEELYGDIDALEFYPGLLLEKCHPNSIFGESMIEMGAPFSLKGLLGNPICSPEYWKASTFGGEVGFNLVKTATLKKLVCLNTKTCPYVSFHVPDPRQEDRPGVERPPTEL
Protocol: Cyclooxygenase activity of ovine COX-1 (Oxford Biomedical Research Inc.) and human recombinant COX-2 (Oxford Biomedical Research Inc.) was assayed by a thin layer chromatography (TLC) method as follows. All inhibitors were dissolved in dimethyl sulfoxide to a stock solution of 5 mM. Human recombinant COX-2 (3 units) or ovine COX-1 (15 units) was incubated with inhibitors at several concentrations in a solution containing 100 mM Tris-HCl, pH7.8, 500 μM phenol and hematin for 90 to 120 minutes at room temperature (24° C.). In controls, equal volumes of DMSO without drug were added to the incubation mixture. After incubation for 90-120 minutes, [1-^14C] arachidonic acid (50 μM, 51 mCi/mmol) (DuPont NEN) was added and incubated at 37° C. for 2 minutes. The reaction was terminated by extraction with 1 ml of ethyl acetate. The ethyl acetate layer was transferred into a fresh tube and evaporated to dryness in a Speedvac vacuum dryer. The contents of the tubes were reconstituted in […] of ethyl acetate and spotted on a TLC plate (J. T. Baker, Phillipsburg, N.J.) and developed in a mobile phase containing chloroform/methanol (95:5) at 4° C. Radiolabeled prostanoid compounds (the products of COX enzymatic reaction with radiolabeled arachidonic acid substrate) were quantitated with a radioactivity scanner (Fuji, Phosphorimager). […]

| IC50 (human recombinant COX-2) | IC50 (ovine COX-1) | SMILES | inhibition of DLD-1 cell colony growth in soft agar (DLD-1 cells) |
| --- | --- | --- | --- |
| 100 nM | > 100000 nM | NS(=O)(=O)c1ccc(N2N=C(C(F)(F)F)CC2c2ccccc2)cc1 (stereo not drawn) [Example 1, 1-(4-sulfamylphenyl)-3-trifluoromethyl-5-phenyl-2-pyrazoline] | 100% |
| 78 nM | > 100000 nM | NS(=O)(=O)c1ccc(N2N=C(C(F)(F)F)CC2c2c[nH]c3ccccc23)cc1 (stereo not drawn) [Example 24, 1-(4-sulfamylphenyl)-3-trifluoromethyl-5-(3-indolyl)-2-pyrazoline] | 100% |
